The source of these data is ChEMBL document CHEMBL4342507, “Targeting YAP Degradation by a Novel 1,2,4-Oxadiazole Derivative via Restoration of the Function of the Hippo Pathway” (ACS Med Chem Lett, 2020).

Data set [1] relates to MCF7. As to the kind of experiment: Cytotoxicity against human MCF7 cells assessed as reduction in cell viability measured after 72 hrs by MTT assay. Conditions: MCF7, 72 h. It counts as functional, cell-based. (In general: Tetrazolium dyes change colour on reduction, which living cells bring about.)
In data set [2] the target is T1, Serine/threonine-protein kinase LATS1 (Homo sapiens) (UniProt O95835).
T1 sequence (whole entry): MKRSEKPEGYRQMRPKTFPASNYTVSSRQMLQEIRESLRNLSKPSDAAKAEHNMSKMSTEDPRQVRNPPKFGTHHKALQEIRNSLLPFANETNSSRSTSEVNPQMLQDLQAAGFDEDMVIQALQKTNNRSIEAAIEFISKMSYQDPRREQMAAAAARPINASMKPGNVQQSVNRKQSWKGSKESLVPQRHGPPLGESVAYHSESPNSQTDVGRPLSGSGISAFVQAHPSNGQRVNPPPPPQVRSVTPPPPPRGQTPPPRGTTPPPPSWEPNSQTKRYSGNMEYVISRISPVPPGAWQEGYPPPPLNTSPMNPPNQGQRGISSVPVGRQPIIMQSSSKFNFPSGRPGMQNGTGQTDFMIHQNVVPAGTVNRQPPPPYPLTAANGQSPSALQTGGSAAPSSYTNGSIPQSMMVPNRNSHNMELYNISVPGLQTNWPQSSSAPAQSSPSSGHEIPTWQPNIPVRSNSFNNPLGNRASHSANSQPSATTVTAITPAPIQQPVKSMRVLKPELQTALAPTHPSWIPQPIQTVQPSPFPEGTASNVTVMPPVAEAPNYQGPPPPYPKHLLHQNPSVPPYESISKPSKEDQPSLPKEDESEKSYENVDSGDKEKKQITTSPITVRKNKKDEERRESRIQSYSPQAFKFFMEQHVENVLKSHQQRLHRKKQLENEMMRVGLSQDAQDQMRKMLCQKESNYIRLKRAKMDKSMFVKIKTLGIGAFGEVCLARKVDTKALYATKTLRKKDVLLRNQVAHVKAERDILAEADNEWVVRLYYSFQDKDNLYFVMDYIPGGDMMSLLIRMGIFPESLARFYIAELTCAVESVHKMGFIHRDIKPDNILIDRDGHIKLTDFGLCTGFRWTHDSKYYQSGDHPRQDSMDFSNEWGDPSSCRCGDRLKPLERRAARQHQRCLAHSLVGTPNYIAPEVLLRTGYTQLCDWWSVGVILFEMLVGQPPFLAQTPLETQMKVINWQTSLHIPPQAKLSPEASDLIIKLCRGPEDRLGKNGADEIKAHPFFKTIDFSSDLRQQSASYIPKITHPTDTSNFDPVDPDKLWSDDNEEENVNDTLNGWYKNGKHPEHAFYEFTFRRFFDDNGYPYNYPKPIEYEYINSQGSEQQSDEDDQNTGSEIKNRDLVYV
As to the kind of experiment: Activation of LATS1 in triple-negative human SUM159 cells assessed as induction of YAP degradation by measuring suppression of YAP protein expression at 0.25 to 1 uM measured after 12 hrs by Western blot analysis.

The subject of data set [3] is PC-9. The data set is described as follows: Cytotoxicity against human PC9 cells assessed as reduction in cell viability measured after 72 hrs by MTT assay. It counts as functional, cell-based.
Data set [4] concerns SUM-159-PT. The data set is described as follows: Cytotoxicity against human SUM159 cells assessed as reduction in cell viability at 0.2 to 1.2 uM by MTT assay. It counts as functional, cell-based. Conditions: TDE = time-dependent effect.
The test system of data set [5] is PC-9. As to the kind of experiment: Cytotoxicity against human PC9 cells assessed as reduction in cell viability at 0.2 to 1.2 uM by MTT assay. It counts as functional, cell-based. Conditions: TDE = time-dependent effect.
In data set [6] the target is T1, Serine/threonine-protein kinase LATS1 (Homo sapiens). As to the kind of experiment: Activation of LATS1 in human PC3 cells assessed as increase in YAP phosphorylation at Ser397 at 0.25 to 1.5 uM measured after 12 to 24 hrs by immunoblotting analysis. It counts as cell-based. Background: Immunoblotting shows a protein as a band on a membrane.
For data set [7] the target is unchanged. The data set is described as follows: Activation of LATS1 in human MDA-MB-231 cells assessed as increase in YAP phosphorylation at Ser397 at 0.25 to 1.5 uM measured after 24 to 48 hrs by immunoblotting analysis. The class given is cell-based.
Data set [8] has the same target. As to the kind of experiment: Activation of LATS1 in human PC3 cells assessed as increase in YAP phosphorylation at Ser397 at 0.25 to 1.5 uM measured after 24 to 48 hrs by immunoblotting analysis. The class given is cell-based.
Data set [9] deals with PC-9. As to the kind of experiment: Downregulation of TAZ protein expression in human PC9 cells at 0.25 to 1.5 uM measured after 12 to 24 hrs by immunoblotting analysis. It counts as functional, cell-based.
The target of data set [10] is T1, Serine/threonine-protein kinase LATS1 (Homo sapiens). The data set is described as follows: Activation of LATS1 in human MDA-MB-231 cells assessed as increase in phosphorylation at Ser909 residue measured after 24 hrs by Western blot analysis. It counts as cell-based.
Data set [11] has the same target. The data set is described as follows: Activation of LATS1 in human MDA-MB-231 cells assessed as increase in phosphorylation at Thr1079 residue measured after 24 hrs by Western blot analysis. The class given is cell-based.
The target of data set [12] is Serine/threonine-protein kinase 3/4 (Homo sapiens) (UniProt Q13043+Q13188). The data set is described as follows: Activation of MST1/2 in human PC3 cells assessed as effect on phosphorylation at T183/T180 residues at 0.25 to 1.5 uM measured after 24 hrs by Western blot analysis. The class given is cell-based.
In data set [13] the test system is SUM-159-PT. The data set is described as follows: Effect on MST1 expression in human SUM159 cells at 0.25 to 1.5 uM measured after 12 hrs by Western blot analysis. The class given is functional, cell-based.
The subject of data set [14] is PC-3. As to the kind of experiment: Effect on MST1 expression in human PC3 cells at 0.25 to 1.5 uM measured after 24 hrs by Western blot analysis. The class given is functional, cell-based.
Data set [15] concerns PC-3. The data set is described as follows: Effect on MST2 expression in human PC3 cells at 0.25 to 1.5 uM measured after 24 hrs by Western blot analysis. It counts as functional, cell-based.
Data set [16] can be described thus: Acute toxicity in athymic Nude-Foxn1nu BALB/c mouse xenografted with human MDA-MB-231 cells assessed as effect on serum ALT level at 200 mg/kg, po administered once daily via gavage for 14 days. Conditions: in vivo, 336 h. The class given is organism-based. (In xenograft studies the graft and the host belong to different species.)
A short description of data set [17]: Acute toxicity in athymic Nude-Foxn1nu BALB/c mouse xenografted with human MDA-MB-231 cells assessed as effect on serum total bilirubin level at 200 mg/kg, po administered once daily via gavage for 14 days. It counts as organism-based. Conditions: in vivo, 336 h.
The test system of data set [18] is Mus musculus. The data set is described as follows: Downregulation of cyclin D1 protein expression in tumor of athymic Nude-Foxn1nu BALB/c mouse xenografted with human MDA-MB-231 cells at 200 mg/kg, po administered once daily via gavage for 40 days by immunoblotting analysis. It counts as functional, organism-based.
The test system of data set [19] is MCF7. As to the kind of experiment: Cytostatic activity against human MCF7 cells assessed as cell viability at concentration of greater than IC50 measured up to 72 hrs by MTT assay. It counts as functional, cell-based.
Data set [20] concerns SUM-159-PT. As to the kind of experiment: Cytostatic activity against human SUM159 cells assessed as cell viability at concentration of greater than IC50 measured up to 72 hrs by MTT assay. The class given is functional, cell-based.
Data set [21] deals with PC-3. The data set is described as follows: Cytostatic activity against human PC3 cells assessed as cell viability at concentration of greater than IC50 measured up to 72 hrs by MTT assay. It counts as functional, cell-based.
The target of data set [22] is T1, Serine/threonine-protein kinase LATS1 (Homo sapiens). As to the kind of experiment: Activation of LATS1 in human PC9 cells assessed as induction of YAP degradation by measuring suppression of YAP protein expression at 0.25 to 1.5 uM measured after 12 to 24 hrs by immunoblotting analysis. It counts as cell-based.
In data set [23] the test system is PC-3. The data set is described as follows: Effect on MOB expression in human PC3 cells at 0.25 to 1.5 uM measured after 24 hrs by Western blot analysis. It counts as functional, cell-based.

The source made the active and inactive calls. No cut-off for these calls is given here. Where only a bound is given, the exact number is not on record here.

Sequence of Serine/threonine-protein kinase 3/4 (Homo sapiens) (Q13043 whole entry, looked up): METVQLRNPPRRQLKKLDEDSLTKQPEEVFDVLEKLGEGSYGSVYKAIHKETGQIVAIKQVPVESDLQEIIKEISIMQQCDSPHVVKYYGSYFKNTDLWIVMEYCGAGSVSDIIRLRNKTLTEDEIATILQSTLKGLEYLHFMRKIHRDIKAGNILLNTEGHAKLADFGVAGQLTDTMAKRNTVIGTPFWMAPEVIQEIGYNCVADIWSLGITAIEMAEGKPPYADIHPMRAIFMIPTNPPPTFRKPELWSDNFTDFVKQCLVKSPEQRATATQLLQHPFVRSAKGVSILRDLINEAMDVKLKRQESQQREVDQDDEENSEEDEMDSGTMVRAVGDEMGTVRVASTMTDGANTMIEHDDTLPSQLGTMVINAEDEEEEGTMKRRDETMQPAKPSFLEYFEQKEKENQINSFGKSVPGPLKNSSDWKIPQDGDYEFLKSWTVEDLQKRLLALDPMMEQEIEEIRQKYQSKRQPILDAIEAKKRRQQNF
Sequence of Serine/threonine-protein kinase 3/4 (Homo sapiens) (Q13188 whole entry, looked up): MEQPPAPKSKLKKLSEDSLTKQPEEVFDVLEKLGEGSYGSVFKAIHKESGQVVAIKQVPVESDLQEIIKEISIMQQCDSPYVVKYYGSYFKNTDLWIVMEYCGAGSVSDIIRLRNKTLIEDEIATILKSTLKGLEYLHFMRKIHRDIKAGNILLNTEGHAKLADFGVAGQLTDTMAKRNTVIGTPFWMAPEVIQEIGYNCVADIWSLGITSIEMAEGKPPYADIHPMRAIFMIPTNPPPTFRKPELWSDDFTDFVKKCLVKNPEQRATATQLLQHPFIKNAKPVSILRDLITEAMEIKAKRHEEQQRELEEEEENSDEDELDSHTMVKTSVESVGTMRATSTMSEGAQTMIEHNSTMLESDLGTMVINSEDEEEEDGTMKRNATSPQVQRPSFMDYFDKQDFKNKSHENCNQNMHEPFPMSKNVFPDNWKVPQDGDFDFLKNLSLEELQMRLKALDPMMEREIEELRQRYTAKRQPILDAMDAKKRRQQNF

As usually defined, the IC50 is the concentration needed to halve the response being measured. On to `CC(=O)Nc1ccc(NC(=O)Nc2cccc(-c3nc(-c4ccc(NC(=O)c5cccnc5)cc4Cl)no3)c2)cc1C(F)(F)F`, for which the IC50 is more than 1200 nM in data set [1] and 400 to 800 nM in [3] (PC-9, 72 h). The outcome in data set [2], in [6], in data set [19], in data set [20], in data set [21] and in data set [22] was Active. The Activity entry in data set [3] was “Dose-dependent effect”; in data set [4], “Tde”; in [5] it was “Tde”; in data set [10], “Dose-dependent effect”; in [11], “Dose-dependent effect”; in [16], “Non-Toxic”. Moreover, the Activity entry in [17] is reported as “Non-Toxic”. Besides, the outcome in [7], in data set [8], in data set [12], in [13], in [14] and in [15] was inactive. For the same molecule, in data set [23], the outcome was inactive. In addition, the inhibition result in [9] and in [18] was “Active” each time.
